Our source for the EC50 and IC50 values is patent US11753395B2 (Kinnate Biopharma Inc., priority 2021, dated 2023).

One assay concerns the target T1, Ba/F3-TPR-MET cells (Homo sapiens, UniProt P08581).
T1 construct: fused on or other part: P12270 (Nucleoprotein TPR)
Briefly: CellTiter-Glo Cell Viability Assay, Ba/F3-TPR-MET. Format: cell-based. Conditions: 72 hours. The method, then: (§1) Ba/F3-TPR-MET and Ba/F3-TPR-MET-D1228N cells were seeded at 3000 cells per well in a 96 well plate in 90 μL growth media and allowed to incubate overnight at 37° C. with 5% CO2. The following day, compounds were serially diluted from a 10 mM top dose for a 9-point 3-fold dilution curve in DMSO. Following a 100-fold dilution in growth media, a further 10-fold dilution was made into the cell plate for a final volume of 100 μL and 0.1% DMSO. Compounds and cells were incubated together for 72 hours at 37° C. with 5% CO2. The CellTiter-Glo® 2.0 Assay determines the number of viable cells in culture by quantifying ATP, which indicates the presence of metabolically active cells. Luminescence readout is directly proportional to the number of viable cells in culture. CellTiter-Glo reagent (Promega, G9243) and cell plates were allowed to equilibrate to room temperature for at least 15 min, then 100 μL of CellTiter-Glo was added to each well for a 1:1 ratio of reagent to media. Samples were placed on a shaker for 2 min prior to a 30 min incubation at room temperature protected from light. Luminescence was read on a Perkin Elmer Envision plate reader 2105 and used to calculate ICso values within the Dotmatics Knowledge Solutions Studies curve fitting environment (Dotmatics, Bishops Stortford, UK, CM23) and are presented in Table 2.
(In general: ATP-based viability assays read luminescence as a measure of living cells.)

Assay [1] deals with T2, Ba/F3-TPR-MET-D1228N cells (Homo sapiens, UniProt P08581, D1228N, cells depend on it).
T2 construct: fused on or other part: P12270 (Nucleoprotein TPR)
In words: CellTiter-Glo Cell Viability Assay, Ba/F3-TPR-MET-D1228N. Format: cell-based. The note with it: 72 hours. The method, then: as §1

Another assay deals with T3, MET (Homo sapiens, UniProt P08581).
T3 construct: purchased Carna Biosciences 08-151
In words: MET Mobility Shift Assay. Conditions: biochemical assay IC50; 100 μM ATP, 60 minute kinase reaction. The method, then:
(§2) Small molecule inhibition of MET kinase activity was evaluated using a fluorescence-based microfluidic mobility shift assay. MET catalyzes the production of ADP from ATP during phosphoryl transfer to the substrate peptide, FLPeptide30 (5-FAM-KKKKEEIYFFF-CONH2) (Perkin Elmer, 760430). MET enzme (Carna Biosciences, 08-151) at 0.625 nM was prepared with 10 mM MgCl2 and 1.5 μM substrate peptide in a buffer containing 50 mM HEPES, 1 mM EGTA, 0.01% Brij-35, 0.05% BSA, and 2 mM DTT and pre-incubated at room temperature for 30 min prior to the start of the reaction. 100 μM ATP was added to start the reaction. The mobility shift assay electrophoretically separates the fluorescently labeled peptides (substrate and phosphorylated product) following the 60 minute kinase reaction. The reaction was terminated by addition of 0.5 M EDTA. Both substrate and product were measured and the ratio of these values used to generate % conversion of substrate to product by the LabChip EZ reader (Perkin Elmer). ICso values were calculated using the inhibition of conversion ratio using Dotmatics Knowledge Solutions Studies curve fitting environment (Dotmatics, Bishops Stortford, UK, CM23) and are presented in Table 2.

For the next assay, the target named is T4, MET D1228N (Homo sapiens, UniProt P08581, D1228N).
T4 construct: purchased Signalchem M52-12IG
In words: MET D1228N Mobility Shift Assay. Conditions: biochemical assay IC50; 100 μM ATP, 60 minute kinase reaction. The method, then:
as §2, with “MET D1228N” for “MET”, “a fluorescence -based” for “a fluorescence-based”, “FLPeptide30 (5-FAM-KKKKEEIYFFF -CONH2)” for “FLPeptide30 (5-FAM-KKKKEEIYFFF-CONH2)”, “MET D1228N enzyme (Signalchem, M52-12IG)” for “MET enzme (Carna Biosciences, 08-151)”, “at 0.313” for “at 0.625”

T2 sequence (P08581 whole entry D1228N, the tested form may be a part): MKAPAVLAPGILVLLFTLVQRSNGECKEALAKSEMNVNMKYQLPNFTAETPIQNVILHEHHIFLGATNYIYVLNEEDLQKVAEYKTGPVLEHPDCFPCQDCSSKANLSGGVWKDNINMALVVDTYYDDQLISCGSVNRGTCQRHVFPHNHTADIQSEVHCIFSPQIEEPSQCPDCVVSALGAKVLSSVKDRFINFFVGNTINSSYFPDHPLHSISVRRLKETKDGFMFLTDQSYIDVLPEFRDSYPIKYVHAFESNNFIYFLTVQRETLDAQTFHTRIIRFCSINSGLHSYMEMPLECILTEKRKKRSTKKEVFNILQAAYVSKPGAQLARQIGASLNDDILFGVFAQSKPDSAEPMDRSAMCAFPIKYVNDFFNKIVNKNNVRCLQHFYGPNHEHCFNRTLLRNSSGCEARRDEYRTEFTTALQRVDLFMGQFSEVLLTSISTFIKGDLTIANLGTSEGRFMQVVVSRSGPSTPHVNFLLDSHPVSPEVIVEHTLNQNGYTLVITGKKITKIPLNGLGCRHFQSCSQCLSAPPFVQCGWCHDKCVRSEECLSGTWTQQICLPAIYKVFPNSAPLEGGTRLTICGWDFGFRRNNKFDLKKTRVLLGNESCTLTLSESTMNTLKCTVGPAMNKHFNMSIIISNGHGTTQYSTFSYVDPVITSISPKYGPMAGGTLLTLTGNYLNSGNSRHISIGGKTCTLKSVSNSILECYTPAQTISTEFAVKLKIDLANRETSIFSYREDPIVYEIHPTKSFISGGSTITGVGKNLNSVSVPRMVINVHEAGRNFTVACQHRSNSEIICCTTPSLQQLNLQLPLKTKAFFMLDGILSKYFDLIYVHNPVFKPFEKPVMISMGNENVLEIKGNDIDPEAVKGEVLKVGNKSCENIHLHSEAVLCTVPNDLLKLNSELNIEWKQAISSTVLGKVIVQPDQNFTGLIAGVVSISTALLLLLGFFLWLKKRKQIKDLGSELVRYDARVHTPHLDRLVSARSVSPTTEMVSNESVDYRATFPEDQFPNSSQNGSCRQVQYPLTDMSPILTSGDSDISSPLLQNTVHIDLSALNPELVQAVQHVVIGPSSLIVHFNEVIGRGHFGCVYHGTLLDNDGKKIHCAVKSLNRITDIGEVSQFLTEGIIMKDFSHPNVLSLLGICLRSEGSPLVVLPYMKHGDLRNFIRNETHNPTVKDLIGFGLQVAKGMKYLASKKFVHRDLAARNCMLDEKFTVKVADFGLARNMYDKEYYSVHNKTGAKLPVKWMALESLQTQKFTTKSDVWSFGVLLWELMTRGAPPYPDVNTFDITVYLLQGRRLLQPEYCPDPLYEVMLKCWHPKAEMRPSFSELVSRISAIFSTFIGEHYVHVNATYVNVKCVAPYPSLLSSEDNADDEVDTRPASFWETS
T1 sequence (P08581 whole entry, change not shown, the tested form may be a part): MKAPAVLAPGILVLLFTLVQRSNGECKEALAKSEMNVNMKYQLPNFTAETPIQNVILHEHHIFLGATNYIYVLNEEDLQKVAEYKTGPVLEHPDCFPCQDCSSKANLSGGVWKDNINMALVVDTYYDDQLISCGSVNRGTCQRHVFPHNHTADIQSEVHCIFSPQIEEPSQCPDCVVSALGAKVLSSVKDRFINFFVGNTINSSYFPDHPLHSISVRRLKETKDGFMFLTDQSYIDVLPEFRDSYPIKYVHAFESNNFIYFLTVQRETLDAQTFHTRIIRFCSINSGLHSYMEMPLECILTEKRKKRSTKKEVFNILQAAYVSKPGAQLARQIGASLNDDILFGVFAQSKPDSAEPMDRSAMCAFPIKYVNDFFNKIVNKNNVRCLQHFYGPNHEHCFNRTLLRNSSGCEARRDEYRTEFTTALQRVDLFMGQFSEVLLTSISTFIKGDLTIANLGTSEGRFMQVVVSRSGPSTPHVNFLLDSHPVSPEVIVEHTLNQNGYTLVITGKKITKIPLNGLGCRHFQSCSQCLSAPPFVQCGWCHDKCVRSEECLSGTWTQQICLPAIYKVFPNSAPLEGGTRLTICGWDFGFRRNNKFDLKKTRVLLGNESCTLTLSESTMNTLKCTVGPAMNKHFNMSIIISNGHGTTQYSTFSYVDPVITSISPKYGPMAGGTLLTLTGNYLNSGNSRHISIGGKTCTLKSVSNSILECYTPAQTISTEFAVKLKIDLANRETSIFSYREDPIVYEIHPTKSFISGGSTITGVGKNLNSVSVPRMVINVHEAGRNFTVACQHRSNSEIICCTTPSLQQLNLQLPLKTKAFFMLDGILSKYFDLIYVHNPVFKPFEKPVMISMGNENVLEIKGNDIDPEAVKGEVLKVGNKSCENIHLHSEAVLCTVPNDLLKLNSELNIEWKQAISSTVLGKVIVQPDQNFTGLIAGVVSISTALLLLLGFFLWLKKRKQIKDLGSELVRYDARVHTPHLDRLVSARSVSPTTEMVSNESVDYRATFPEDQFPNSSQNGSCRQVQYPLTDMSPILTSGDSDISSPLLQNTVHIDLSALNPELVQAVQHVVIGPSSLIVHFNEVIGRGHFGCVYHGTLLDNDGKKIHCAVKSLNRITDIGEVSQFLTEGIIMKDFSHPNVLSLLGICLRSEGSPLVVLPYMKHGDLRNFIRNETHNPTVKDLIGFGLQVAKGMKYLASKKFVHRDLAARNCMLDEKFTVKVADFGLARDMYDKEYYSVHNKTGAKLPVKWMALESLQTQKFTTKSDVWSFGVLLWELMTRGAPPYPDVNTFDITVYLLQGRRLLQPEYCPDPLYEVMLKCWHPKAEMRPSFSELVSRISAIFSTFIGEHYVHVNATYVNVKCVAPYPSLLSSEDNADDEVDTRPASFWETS
T3 sequence (P08581 25-1390): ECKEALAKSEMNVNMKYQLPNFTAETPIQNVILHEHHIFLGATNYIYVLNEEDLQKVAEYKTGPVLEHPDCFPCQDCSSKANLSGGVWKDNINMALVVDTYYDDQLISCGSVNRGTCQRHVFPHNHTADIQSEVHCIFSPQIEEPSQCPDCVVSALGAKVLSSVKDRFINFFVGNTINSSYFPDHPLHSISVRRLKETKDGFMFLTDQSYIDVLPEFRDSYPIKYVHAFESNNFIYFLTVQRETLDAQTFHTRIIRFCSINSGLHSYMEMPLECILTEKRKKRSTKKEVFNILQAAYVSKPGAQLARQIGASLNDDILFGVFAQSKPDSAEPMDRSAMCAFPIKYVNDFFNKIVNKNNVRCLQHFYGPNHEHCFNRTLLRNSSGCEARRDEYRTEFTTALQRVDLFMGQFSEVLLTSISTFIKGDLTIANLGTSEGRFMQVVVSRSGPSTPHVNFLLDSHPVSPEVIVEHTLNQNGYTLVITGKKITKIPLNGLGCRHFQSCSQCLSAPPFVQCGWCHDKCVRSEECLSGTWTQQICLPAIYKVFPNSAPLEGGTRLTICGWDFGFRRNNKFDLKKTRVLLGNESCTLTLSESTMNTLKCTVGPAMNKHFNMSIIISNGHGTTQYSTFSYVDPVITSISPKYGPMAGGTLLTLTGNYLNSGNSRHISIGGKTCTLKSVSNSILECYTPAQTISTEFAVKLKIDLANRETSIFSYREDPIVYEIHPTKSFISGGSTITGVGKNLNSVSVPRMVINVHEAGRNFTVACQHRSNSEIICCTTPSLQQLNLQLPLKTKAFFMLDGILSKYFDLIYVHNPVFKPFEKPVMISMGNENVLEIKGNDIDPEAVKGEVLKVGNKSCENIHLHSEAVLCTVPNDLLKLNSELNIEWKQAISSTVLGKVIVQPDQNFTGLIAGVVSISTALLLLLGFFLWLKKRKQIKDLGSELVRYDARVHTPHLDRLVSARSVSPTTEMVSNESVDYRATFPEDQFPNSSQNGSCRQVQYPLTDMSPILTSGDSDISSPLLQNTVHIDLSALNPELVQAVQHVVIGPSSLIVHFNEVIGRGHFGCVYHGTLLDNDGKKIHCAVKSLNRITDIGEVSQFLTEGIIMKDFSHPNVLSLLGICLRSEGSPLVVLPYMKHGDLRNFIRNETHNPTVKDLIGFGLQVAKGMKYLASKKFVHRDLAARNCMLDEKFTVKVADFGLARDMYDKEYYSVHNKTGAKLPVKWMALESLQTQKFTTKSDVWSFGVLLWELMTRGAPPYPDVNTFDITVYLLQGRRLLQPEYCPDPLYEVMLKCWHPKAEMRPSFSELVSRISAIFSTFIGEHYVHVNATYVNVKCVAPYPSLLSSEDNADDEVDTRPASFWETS

Take `COc1cc2c(Oc3c(F)cc(NC(=O)c4cnccc4OC)cc3F)ccnc2cc1OCCO` [Example 121, N-(3,5-difluoro-4-((7-(2-hydroxyethoxy)-6-methoxyquinolin-4-yl)oxy)phenyl)-4-methoxypyridine-3-carboxamide]: the EC50 (at Ba/F3-TPR-MET cells; in assay [1]) was not above 0.1 µM throughout. Moreover, the IC50 on MET and on MET D1228N was not above 0.1 µM each time.

As for `O=C(Nc1cc(F)c(Oc2ccnc3cc(OC4CNC4)ccc23)c(F)c1)c1cnccc1OC1CC1` [Example 89, N-(4-{[7-(azetidin-3-yloxy)quinolin-4-yl]oxy}-3,5-difluorophenyl)-4-cyclopropoxypyridine-3-carboxamide], the concentration giving a half-maximal response (EC50) (at Ba/F3-TPR-MET cells; in assay [1]) was 0.1 to 1 µM each time. The 50% inhibitory concentration (IC50) at MET and on MET D1228N was not above 0.1 µM in each case.

Consider `COc1cc2c(Oc3cc(F)c(NC(=O)c4cnc(N)cc4OC)cc3F)ccnc2cc1OCCCN1CCOCC1` [Example 31, 6-amino-N-(2,5-difluoro-4-((6-methoxy-7-(3-morpholinopropoxy)quinolin-4-yl)oxy)phenyl)-4-methoxypyridine-3-carboxamide], for which the 50% effective concentration (EC50) (at Ba/F3-TPR-MET cells; in assay [1]) was 0.1 to 1 µM throughout. Also, the IC50 at MET and at MET D1228N was not above 0.1 µM in each case.

In the case of `CNCCOc1cc2nccc(Oc3c(F)cc(NC(=O)c4cnccc4OC)cc3F)c2cc1OC` [Example 1, N-(3,5-difluoro-4-((6-methoxy-7-(2-(methylamino)ethoxy)quinolin-4-yl)oxy)phenyl)-4-methoxypyridine-3-carboxamide], the EC50 (at Ba/F3-TPR-MET cells; in assay [1]) was not above 0.1 µM each time. Besides, the IC50 at MET and on MET D1228N was not above 0.1 µM in each case.

As to `CCCOc1ccncc1C(=O)Nc1ccc(Oc2ccnc3cc(OCCNC)c(OC)cc23)c(F)c1F` [Example 82, N-[2,3-difluoro-4-({6-methoxy-7-[2-(methylamino)ethoxy]quinolin-4-yl}oxy)phenyl]-4-propoxypyridine-3-carboxamide], the EC50 (at Ba/F3-TPR-MET cells; in assay [1]) was 0.1 to 1 µM in each case. In addition, the IC50 on MET and at MET D1228N was not above 0.1 µM in each case.

As for `COc1cc2c(Oc3c(F)cc(NC(=O)c4cnc(C)cc4OC4CC4)cc3F)ccnc2cc1OCCO` [Example 116, 4-cyclopropoxy-N-(3,5-difluoro-4-{[7-(2-hydroxyethoxy)-6-methoxyquinolin-4-yl]oxy}phenyl)-6-methylpyridine-3-carboxamide], the EC50 (on Ba/F3-TPR-MET cells; in assay [1]) was not above 0.1 µM in each case. Besides, the IC50 on MET and on MET D1228N was not above 0.1 µM each time.

`COc1ccncc1C(=O)Nc1cc(F)c(Oc2ccnc3cc(OC)c(OC4(CO)CC4)nc23)c(F)c1` [Example 147, N-(3,5-difluoro-4-((6-(1-(hydroxymethyl)cyclopropoxy)-7-methoxy-1,5-naphthyridin-4-yl)oxy)phenyl)-4-methoxynicotinamide]: the EC50 (on Ba/F3-TPR-MET cells; in assay [1]) was not above 0.1 µM in each case. The IC50 on MET and at MET D1228N was not above 0.1 µM in each case.

As to `CNCCOc1ccc2c(Oc3c(F)cc(NC(=O)c4cnccc4OC4CC4)c(F)c3F)ccnc2c1` [Example 94, 4-cyclopropoxy-N-[2,3,5-trifluoro-4-({7-[2-(methylamino)ethoxy]quinolin-4-yl}oxy)phenyl]pyridine-3-carboxamide], the EC50 (on Ba/F3-TPR-MET cells; in assay [1]) was not above 0.1 µM in each case. For the same compound, the half-maximal inhibitory concentration (IC50) on MET and at MET D1228N was not above 0.1 µM each time.

For `COc1ccncc1C(=O)Nc1cc(F)c(Oc2ccnc3cc(OCCO)ccc23)c(F)c1` [Example 41, N-(3,5-difluoro-4-((7-(2-hydroxyethoxy)quinolin-4-yl)oxy)phenyl)-4-methoxypyridine-3-carboxamide], the EC50 (commonly the midpoint of the concentration-response curve) was 0.1 to 1 µM at Ba/F3-TPR-MET cells and not above 0.1 µM in assay [1]. Moreover, the IC50 on MET and at MET D1228N was not above 0.1 µM each time.

Consider `COc1cc2c(Oc3c(F)cc(NC(=O)c4cnccc4OC)cc3F)ccnc2cc1OCC(C)(C)O` [Example 39, N-(3,5-difluoro-4-((7-(2-hydroxy-2-methylpropoxy)-6-methoxyquinolin-4-yl)oxy)phenyl)-4-methoxypyridine-3-carboxamide], for which the half-maximal effective concentration (EC50) at Ba/F3-TPR-MET cells was 0.1 to 1 µM; in assay [1], not above 0.1 µM. For the same compound, the half-inhibitory concentration (IC50) at MET and at MET D1228N was not above 0.1 µM each time.

Turning to `CNCCOc1cc2nccc(Oc3c(F)cc(NC(=O)c4cnc(NCCOC)cc4OC)cc3F)c2cc1OC` [Example 46, N-(3,5-difluoro-4-((6-methoxy-7-(2-(methylamino)ethoxy)quinolin-4-yl)oxy)phenyl)-4-methoxy-6-((2-methoxyethyl)amino)pyridine-3-carboxamide], the concentration for a half-maximal effect (EC50) (at Ba/F3-TPR-MET cells; in assay [1]) was not above 0.1 µM in each case. Moreover, the IC50 on MET and on MET D1228N was not above 0.1 µM in each case.

For `CNCCOc1cc2nccc(Oc3c(F)cc(NC(=O)c4cnccc4O[C@@H]4CCOC4)cc3F)c2cc1OC` [Example 70, N-[3,5-difluoro-4-({6-methoxy-7-[2-(methylamino)ethoxy]quinolin-4-yl}oxy)phenyl]-4-[(3R)-oxolan-3-yloxy]pyridine-3-carboxamide], the EC50 (on Ba/F3-TPR-MET cells; in assay [1]) was 0.1 to 1 µM each time. Further, the IC50 on MET and at MET D1228N was not above 0.1 µM throughout.

In the case of `COc1cc2c(Oc3c(F)cc(NC(=O)c4cnccc4OC4CC4)cc3F)ccnc2cc1OC1CNC1` [Example 74, N-(4-{[7-(azetidin-3-yloxy)-6-methoxyquinolin-4-yl]oxy}-3,5-difluorophenyl)-4-cyclopropoxypyridine-3-carboxamide], the EC50 (on Ba/F3-TPR-MET cells; in assay [1]) was 0.1 to 1 µM throughout. Besides, the IC50 on MET and on MET D1228N was not above 0.1 µM in each case.

Consider `CNCCOc1cc2nccc(Oc3c(F)cc(NC(=O)c4cnccc4OC[C@H](C)O)cc3F)c2cc1OC` [Example 64, (S)-N-(3,5-difluoro-4-((6-methoxy-7-(2-(methylamino)ethoxy)quinolin-4-yl)oxy)phenyl)-4-(2-hydroxypropoxy)pyridine-3-carboxamide], for which the EC50 (on Ba/F3-TPR-MET cells; in assay [1]) was 0.1 to 1 µM throughout. Also, the IC50 on MET and on MET D1228N was not above 0.1 µM throughout.

On to `CNCCOc1cc2nccc(Oc3cc(F)c(NC(=O)c4c(OC)ccnc4F)cc3F)c2cc1OC` [Example 25, N-[2,5-difluoro-4-({6-methoxy-7-[2-(methylamino)ethoxy]quinolin-4-yl}oxy)phenyl]-2-fluoro-4-methoxypyridine-3-carboxamide], for which the EC50 (on Ba/F3-TPR-MET cells; in assay [1]) was 0.1 to 1 µM each time. Also, the IC50 at MET and at MET D1228N was not above 0.1 µM throughout.

Regarding `COc1cc2nccc(Oc3c(F)cc(NC(=O)c4cnccc4OCCO)cc3F)c2cc1OC` [Example 95, N-{4-[(6,7-dimethoxyquinolin-4-yl)oxy]-3,5-difluorophenyl}-4-(2-hydroxyethoxy)pyridine-3-carboxamide], the EC50 (on Ba/F3-TPR-MET cells; in assay [1]) was 0.1 to 1 µM in each case. Also, the 50% inhibitory concentration (IC50) on MET and at MET D1228N was not above 0.1 µM in each case.
